Data taken from ChEMBL document CHEMBL3046848, “Synthesis and biological evaluation of novel series of thieno[2,3-d]pyrimidine derivatives as anticancer and antimicrobial agents” (2013).

Experiments:
Type in all cases: functional
BT-549 = test: Growth inhibition of Homo sapiens (human) BT549 cells at 10 uM after 48 hr by SRB assay; settings: BT-549, 48 h, read-out: GI
UACC-257 = test: Anticancer activity against Homo sapiens (human) UACC257 cells after 48 hr by SRB assay; settings: UACC-257, 48 h
NCI-H322M [1] = test: Anticancer activity against Homo sapiens (human) NCI-H322M cells after 48 hr by SRB assay
OVCAR-4 = test: Anticancer activity against Homo sapiens (human) OVCAR4 cells after 48 hr by SRB assay; settings: OVCAR-4, 48 h
NCI-H226 = test: Anticancer activity against Homo sapiens (human) NCI-H226 cells after 48 hr by SRB assay; settings: NCI-H226, 48 h
A549 = test: Anticancer activity against Homo sapiens (human) A549/ATCC cells after 48 hr by SRB assay; settings: A549, 48 h
MCF7 = test: Anticancer activity against Homo sapiens (human) MCF7 cells after 48 hr by SRB assay; settings: MCF7, 48 h
HT-29 = test: Growth inhibition of Homo sapiens (human) HT-29 cells at 10 uM after 48 hr by SRB assay; settings: HT-29, 48 h, read-out: GI
T47D = test: Anticancer activity against Homo sapiens (human) T47D cells after 48 hr by SRB assay
KM12 [2] = test: Growth inhibition of Homo sapiens (human) KM12 cells at 10 uM after 48 hr by SRB assay; settings: KM12, 48 h, read-out: GI
NCI-H460 = test: Anticancer activity against Homo sapiens (human) NCI-H460 cells after 48 hr by SRB assay; settings: NCI-H460, 48 h
NCI-H322M [3] = test: Growth inhibition of Homo sapiens (human) NCI-H322M cells at 10 uM after 48 hr by SRB assay; settings: read-out: GI
PC-3 [4] = test: Growth inhibition of Homo sapiens (human) PC3 cells at 10 uM after 48 hr by SRB assay; settings: PC-3, 48 h, read-out: GI
MDA-MB-435 = test: Anticancer activity against Homo sapiens (human) MDA-MB-435 cells after 48 hr by SRB assay; settings: MDA-MB-435, 48 h
SNB-19 [5] = test: Anticancer activity against Homo sapiens (human) SNB19 cells after 48 hr by SRB assay; settings: SNB-19, 48 h
Hs-578T = test: Anticancer activity against Homo sapiens (human) Hs 578T cells after 48 hr by SRB assay
KM12 [6] = test: Anticancer activity against Homo sapiens (human) KM12 cells after 48 hr by SRB assay; settings: KM12, 48 h
RPMI-8226 = test: Growth inhibition of Homo sapiens (human) RPMI8226 cells at 10 uM after 48 hr by SRB assay; settings: RPMI-8226, 48 h, read-out: GI
RXF 393 = test: Anticancer activity against Homo sapiens (human) RXF393 cells after 48 hr by SRB assay; settings: RXF 393, 48 h
SK-MEL-2 = test: Growth inhibition of Homo sapiens (human) SK-MEL-2 cells at 10 uM after 48 hr by SRB assay; settings: SK-MEL-2, 48 h, read-out: GI
786-0 = test: Anticancer activity against Homo sapiens (human) 786-0 cells after 48 hr by SRB assay; settings: 786-0, 48 h
SNB-75 [7] = test: Anticancer activity against Homo sapiens (human) SNB75 cells after 48 hr by SRB assay; settings: SNB-75, 48 h
OVCAR-8 = test: Growth inhibition of Homo sapiens (human) OVCAR8 cells at 10 uM after 48 hr by SRB assay; settings: OVCAR-8, 48 h, read-out: GI
HCC 2998 = test: Growth inhibition of Homo sapiens (human) HCC2998 cells at 10 uM after 48 hr by SRB assay; settings: HCC 2998, 48 h, read-out: GI
SNB-75 [8] = test: Growth inhibition of Homo sapiens (human) SNB75 cells at 10 uM after 48 hr by SRB assay; settings: SNB-75, 48 h, read-out: GI
LOX IMVI = test: Anticancer activity against Homo sapiens (human) LOXIMVI cells after 48 hr by SRB assay
PC-3 [9] = test: Anticancer activity against Homo sapiens (human) PC3 cells after 48 hr by SRB assay; settings: PC-3, 48 h
SNB-19 [10] = test: Growth inhibition of Homo sapiens (human) SNB19 cells at 10 uM after 48 hr by SRB assay; settings: SNB-19, 48 h, read-out: GI
ACHN = test: Growth inhibition of Homo sapiens (human) ACHN cells at 10 uM after 48 hr by SRB assay; settings: read-out: GI
DU-145 = test: Growth inhibition of Homo sapiens (human) DU145 cells at 10 uM after 48 hr by SRB assay; settings: DU-145, 48 h, read-out: GI
UO-31 = test: Anticancer activity against Homo sapiens (human) UO31 cells after 48 hr by SRB assay; settings: UO-31, 48 h
Candida albicans = test: Antimicrobial activity against Candida albicans ATCC2091 assessed as diameter of growth inhibition zone at 1 mg/ml after 48 hr by agar cup diffusion method; settings: ATCC2091, 48 h, read-out: IZ
IGROV-1 = test: Anticancer activity against Homo sapiens (human) IGROV1 cells after 48 hr by SRB assay; settings: IGROV-1, 48 h
[11] = read-out: LC50 (the source's name)

Cc1c(C(N)=O)sc2nc(C)n(/N=c3\scc(-c4ccccc4)n3Cc3ccccc3)c(=O)c12
inhibition of growth at 10 µM (BT-549): 107% | GI50 (UACC-257): 3.56 µM | TGI (UACC-257): 24.3 µM | CC50 (UACC-257; [11]): > 100 µM | GI50 (NCI-H322M [1]): 3.71 µM | TGI (NCI-H322M [1]): > 100 µM | CC50 (NCI-H322M [1]; [11]): > 100 µM | GI50 (OVCAR-4): 2.5 µM | TGI (OVCAR-4): > 100 µM | CC50 (OVCAR-4; [11]): > 100 µM | GI50 (NCI-H226): 3.72 µM | TGI (NCI-H226): 67.9 µM | CC50 (NCI-H226; [11]): > 100 µM | GI50 (A549): 3.79 µM | TGI (A549): > 100 µM | CC50 (A549; [11]): > 100 µM | GI50 (MCF7): 2.92 µM | TGI (MCF7): > 100 µM | CC50 (MCF7; [11]): > 100 µM | inhibition of growth at 10 µM (HT-29): 20.5% | GI50 (T47D): 3.25 µM | TGI (T47D): > 100 µM | CC50 (T47D; [11]): > 100 µM | inhibition of growth at 10 µM (KM12 [2]): 86.4% | GI50 (NCI-H460): 2.65 µM | TGI (NCI-H460): 7.34 µM | CC50 (NCI-H460; [11]): > 100 µM | inhibition of growth at 10 µM (NCI-H322M [3]): 64.6% | inhibition of growth at 10 µM (PC-3 [4]): 98% | GI50 (MDA-MB-435): 2.89 µM | TGI (MDA-MB-435): 12.5 µM | CC50 (MDA-MB-435; [11]): > 100 µM | GI50 (SNB-19 [5]): 4.8 µM | TGI (SNB-19 [5]): > 100 µM | CC50 (SNB-19 [5]; [11]): > 100 µM | GI50 (Hs-578T): 3.85 µM | TGI (Hs-578T): > 100 µM | CC50 (Hs-578T; [11]): > 100 µM | GI50 (KM12 [6]): 3.37 µM | TGI (KM12 [6]): > 100 µM | CC50 (KM12 [6]; [11]): > 100 µM | inhibition of growth at 10 µM (RPMI-8226): 110% | GI50 (RXF 393): 3.43 µM | TGI (RXF 393): > 100 µM | CC50 (RXF 393; [11]): > 100 µM | inhibition of growth at 10 µM (SK-MEL-2): 90% | GI50 (786-0): 3.82 µM | TGI (786-0): > 100 µM | CC50 (786-0; [11]): > 100 µM | GI50 (SNB-75 [7]): 2.8 µM | TGI (SNB-75 [7]): > 100 µM | CC50 (SNB-75 [7]; [11]): > 100 µM | inhibition of growth at 10 µM (OVCAR-8): 85.3% | inhibition of growth at 10 µM (HCC 2998): 42.9% | inhibition of growth at 10 µM (SNB-75 [8]): 45.2% | GI50 (LOX IMVI): 3.54 µM | TGI (LOX IMVI): > 100 µM | CC50 (LOX IMVI; [11]): > 100 µM | GI50 (PC-3 [9]): 2.15 µM | TGI (PC-3 [9]): 8.31 µM | CC50 (PC-3 [9]; [11]): > 100 µM | inhibition of growth at 10 µM (SNB-19 [10]): 70.6% | inhibition of growth at 10 µM (ACHN): 92.7% | inhibition of growth at 10 µM (DU-145): 57.9% | GI50 (UO-31): 1.66 µM | TGI (UO-31): 7 µM | CC50 (UO-31; [11]): > 100 µM | zone of inhibition at 1000 µg/mL (Candida albicans): 17 mm | GI50 (IGROV-1): 1.43 µM | TGI (IGROV-1): 6.31 µM | CC50 (IGROV-1; [11]): > 100 µM
